Here are results for nine compounds from patent US9790551B2, “Use of TRPC6 mRNA levels in peripheral blood cells for early detection/diagnosis of senile dementia” (Aging Wise Biotechnology, Inc., priority 2013, dated 2017).

Series [1] concerns TRPC6 mRNA. The class given is cell-based.
A further series has as its system γ-secretase. The conditions noted are these: phase 3 clinical trial, cited from earlier work.
For series [2], the system named is TRPC6 mRNA. As to the kind of experiment: TRPC6 mRNA in Jurkat cells after APOE-containing culture medium. The class given is cell-based, human. The following applies: after 5 hr. As to the method:
(§1) The culture medium containing different APOE isoforms were added into the Jurkat cells (human T cell line from peripheral blood). The mRNA levels of TRPC6 and TRPC5 were detected after 5 hr (mean±SE, n=5).

Series [3] deals with TRPC5 mRNA. As to the kind of experiment: TRPC5 mRNA in Jurkat cells after APOE-containing culture medium. The conditions noted are these: after 5 hr. The class given is cell-based, human. As to the method: as §1
For series [4], the system named is TRPC6 mRNA. Put plainly: TRPC6 mRNA in rat neurons after APOE-containing culture medium supernatant. The series is classed as cell-based. The following applies: rat neurons cultured in vitro for 8 days, after 2 hr. As to the method: (§2) The culture medium supernatant containing different APOE isoforms were added into rat neurons cultured in vitro for 8 days. The mRNA levels of TRPC6 and TRPC5 were detected after 2 hr (mean±SE, n=8).

For series [5], the system named is TRPC5 mRNA. As to the kind of experiment: TRPC5 mRNA in rat neurons after APOE-containing culture medium supernatant. The class given is cell-based. The conditions noted are these: rat neurons cultured in vitro for 8 days, after 2 hr. As to the method:
as §2

For series [6], the system named is Aβ levels in primary cultured rat cortical neurons. Put plainly: Aβ ELISA of medium, primary cultured rat cortical neurons electrotransfected with siRNA. The series is classed as cell-based. The following applies: Table 6, 7 days after electrotransfection, control siRNA = 1. As to the method: (§3) Upon collecting the culture medium of the cells, Aβ40 and Aβ42 levels were quantified with sandwich ELISA kit, respectively (purchased from Invitrogen). The forebrain of the mouse was dissected and separated, and then homogenized with GuHCL. After that, total Aβ was determined by ELISA. For determining TBST(Tris-Buffered Saline and 1% TritonX100, 1% SDS, 1% DOC) soluble and insoluble Aβ, upon TBST homogenation and centrifugation of the forebrain of the mouse, the supernatant was determined for TBST soluble Aβ by ELISA, and the precipitate was determined for TBST insoluble Aβ by ELISA upon another GuHCL homogenate.
Fetal rat was collected on the 17th day of SD rat pregnancy. Cortical neurons of the rat brains were separated, obtained, and electrotransfected by Nucleofector Device (Amaxa) with TRPC6 siRNA1 as set forth by SEQ ID NO.:12 (sense strand) and SEQ ID NO.:13 (anti-sense strand), TRPC6 siRNA2 as set forth by SEQ ID NO.:18 ([…], sense strand) and SEQ ID NO.:19 ([…], anti-sense strand), control siRNAs as set forth by SEQ ID NO.:14 (sense strand) and SEQ ID NO.:15 (anti-sense strand), and TRPC5 siRNA as set forth by SEQ ID NO.:20 ([…], sense strand) and SEQ ID NO.:21 ([…], anti-sense strand). 7 days after electrotransfection, Aβ levels in the medium were examined by ELISA.
In general terms: In an ELISA, binding on a coated surface is turned into a signal by an enzyme label.

The subject of series [7] is Aβ levels in HEK293APP stable cells. Put plainly: Aβ ELISA, HEK293APP stable cells treated with TAT fusion peptides. The series is classed as cell-based. As to the method:
as §3
In this Example, the second transmembrane domain (487-507aa, TM2) was selected to fuse with cell penetrating peptide TAT and the fusion peptide TAT-TM2 and the mutant thereof TAT-TM2mut were obtained. Their effects on Aβ levels were examined in HEK293APP stable cells.
6.1.2 The Effect of Different Doses of Fusion Protein TAT-TM2 on Aβ Levels in HEK293APP Stable Cells were Determined.
To search for shorter fragments which could inhibit Aβ levels, TM2 was divided into N- and C-terminals and fused with TAT respectively. The effects of TAT-TM2-N, TAT-TM2-C and TAT-TM2-C mutant on Aβ levels in HEK293APP cells was examined.

The test system of series [8] is Aβ levels in APP/PS1 mice. As to the kind of experiment: Brain Aβ levels in APP/PS1 mice after intraperitoneal injection of peptide. The class given is in vivo. The conditions noted are these: intraperitoneally injected, brain tissue 3 hours later. As to the method: 6. Construction of APP/PS1 AD Mouse Models • a) APP/PS1 mice (with B6C3 background) were purchased from Jackson laboratory (#004462). • b) Construction of TRPC6 transgenic mouse
as §3
TAT or TAT-TM2 was intraperitoneally injected into APP/PS1 mice, and brain tissue samples were prepared 3 hours later and the Aβ levels were determined: general method 8 (n=8)

For series [9], the system named is γ-secretase cleavage of C99. As to the kind of experiment: Aβ ELISA, C0S7C99 cells treated with peptide. The class given is cell-based. The following applies: Table 11; C0S7-C99 stable cells, 5 um peptide for 12 h; TAT = 1. As to the method: (§4) C99 is the C-terminal 99 amino acids of APP and the direct substrate of γ-secretase. C0S7C99 cells were passaged in 12-well plate till the density approached 100%. Each well was treated with 5 um peptide for 12 h and the Aβ levels in the culture medium was determined with ELISA.

In series [10] the test system is γ-secretase cleavage of C99. Put plainly: C99-GVP/UAS luciferase reporter system with peptide. The conditions noted are these: Table 11; luciferase activity; TAT = 1. The class given is cell-based. As to the method:
HEK293APP were transfected with C99-GVP/UASLuciferase, CTRL or TRPC6 plasmids, and were lysed 24 hours later. The luciferase activities were determined using the Luciferase assay system (purchased from Promega). β-gal was co-transfected to normalize the transfection efficiency.
as §4
For orientation: A reporter such as luciferase makes a cellular process visible.

Series [11] concerns Aβ levels in primary cultured cortical neurons. Put plainly: Aβ levels in primary cultured cortical neurons treated with TAT-TM2. The class given is cell-based. As to the method:
as §3
6.1.3 The Effect of the Fusion Peptide TAT-TM2 on Aβ Levels in Primary Cultured Cortical Neurons was Determined and the Results were Shown in FIG. 9c: […]

For series [12], the system named is γ-secretase cleavage of Notch. Put plainly: NICD immunoblotting, Notch-transfected cells treated with peptide. The series is classed as cell-based. The conditions noted are these: 5 um peptide for 12 hr. As to the method: Cells were passaged in 12-well plate till the density approached 80%, Each well was transfected with 1 ug Notch plasmid using Lipofectamine 2000. 24 hr later, cells were treated with 5 um peptide for 12 hr. The Notch protein expression was determined by immunoblotting. Wherein, NICD (notch intracellular domain) was the intracellular fragment produced by γ-secretase cleavage of NotchΔE-myc, reflecting the level of γ-secretase cleavage of Notch.
On the technique in general: In western blotting, separated proteins are transferred to a membrane and probed.

Setting [13] is: Table 5, HEK293APP stable cells, TAT control line, concentration not given.
The mark [14] stands for this setting: Table 8, HEK293APP stable cells, TAT = 1.
The mark [15] stands for this setting: Table 9, TAT-TM2 variants, HEK293APP cells, TAT = 1.
[16] abbreviates: Table 5, HEK293APP stable cells, 2 uM, TAT = 1.
Where [17] appears, read: Table 5, HEK293APP stable cells, 5 uM, TAT = 1.
Where [18] appears, read: Table 5, HEK293APP stable cells, 10 uM, TAT = 1.

As to `[Cl-].[Cl-].[Co+2]` [CoCl2], the “TRPC6 expression (mRNA)” value with TRPC6 mRNA [1] is listed as “could upregulate TRPC6 expression”.
`CC(C)[C@H](O)C(=O)N[C@@H](C)C(=O)N[C@@H]1C(=O)N(C)CCc2ccccc21` [Semagacestat]: in the series with γ-secretase (AD patients), the adverse gastrointestinal reaction result is listed as “increased” and the “risk of skin cancer” value is “increased”. Also, the “cognitive function of the AD patients” value in the series on γ-secretase was “declined”.
For “APOE4: culture medium supernatant containing APOE4 isoform”, the “TRPC6 mRNA levels” value is on record as “could not affect TRPC6 mRNA levels” with TRPC6 mRNA [2] and “could not affect the TRPC6 mRNA levels” with TRPC6 mRNA [4]. The entries for the “TRPC5 mRNA levels” value with TRPC5 mRNA [3] and with TRPC5 mRNA [5] were “could not affect TRPC5 mRNA levels” and “could not affect the TRPC5 mRNA levels”, respectively.
In [6], “Control siRNA: control siRNAs, SEQ ID NO.:14 (sense strand) and SEQ ID NO.:15 (anti-sense strand) (sense GCACACCGAAGGAUAUUCUTT; antisense AGAAUAUCCUUCGGUGUGCTT; chemistry not given here)” yielded an Aβ40 of 1 and an Aβ42 of 1.
As to “TAT (GRKKRRQRRRC; fusion peptide) [reference compound]”, the Aβ40 in series [7] (setting [13]) was found to be 1; in [7] (setting [14]), 1; in series [7] (setting [15]), 1; in series [8], 169.70 ± 61.78 pg/mg; in [9] it was 1. The Aβ42 in series [7] (setting [13]) was determined as 1; in [7] (setting [14]), 1; in [7] (setting [15]) it was 1; in series [8], 492.60 ± 157.70 pg/mg; in series [9], 1. Besides, in series [10], the “C99-GVP/UAS luciferase reporter system” value was 1.
For the compound “TAT-TM2: fusion peptide of TRPC6 second transmembrane domain (487-507aa) and TAT, SEQ ID NO.:17, TSCFSWMEMLIISWVIGMIWAGRKKRRQRRRC (fusion peptide)”, the Aβ40 in series [7] (setting [16]) is reported as 0.6825 ± 0.0498; in [7] (setting [17]) it was 0.4863 ± 0.05919; in series [7] (setting [18]) it was 0.2481 ± 0.0763; in series [7] (setting [14]), 0.39 ± 0.03; in series [8], 91.12 ± 43.56 pg/mg; in [9], 0.39 ± 0.11. For the same compound, the Aβ42 in series [7] (setting [16]) is on record as 0.6244 ± 0.03189; in series [7] (setting [17]) it was 0.3255 ± 0.02046; in [7] (setting [18]), 0.2214 ± 0.01597; in [7] (setting [14]), 0.40 ± 0.06; in series [8] it was 277.40 ± 124.10 pg/mg; in series [9], 0.58 ± 0.04. For the same compound, in series [11], the “Aβ40, of the control group” value amounted to 83%. For the same compound, in series [11], the “Aβ42, of the control group” value was 68%. Also, in [10], the “C99-GVP/UAS luciferase reporter system” value was 0.82 ± 0.02. Further, the “NICD level (γ-secretase cleavage of NotchΔE-myc)” value in series [12] is “did not affect NICD level”.
In series [6], “TRPC5 siRNA: TRPC5 siRNA, SEQ ID NO.:20 AACGCCUUCUCCACGCUCUUU and SEQ ID NO.:21 AAAGAGCGUGGAGAAGGCGUU (listed as RNA, chemistry not given here)” yielded an Aβ40 of 0.96 ± 0.09 and an Aβ42 of 1.03 ± 0.02.
Regarding “TRPC6 siRNA-1: TRPC6 siRNA, SEQ ID NO.:12 (sense strand) and SEQ ID NO.:13 (anti-sense strand) (sense CGGUGGUCAUCAACUACAATT; antisense UUGUAGUUGAUGACCACCGTT; chemistry not given here)”, in series [6], the Aβ40 is given as 1.49 ± 0.16 and the Aβ42 is listed as 1.89 ± 0.21.
In [6], “TRPC6 siRNA-2: TRPC6 siRNA, SEQ ID NO.:18 GCUUGACUUUGGAAUGUUATT and SEQ ID NO.:19 UAACAUUCCAAAGUCAAGCTT (chemistry not given here)” displayed an Aβ40 of 1.33 ± 0.13 and an Aβ42 of 1.63 ± 0.17.
